Values quoted from earlier work as cited in patent US20100279974A1, “Nucleosides With Non-Natural Bases as Anti-Viral Agents” (priority 2005, published 2010).

Settings: in vivo

SMILES | antiviral activity
NC(=O)c1nccn(C2OC(COP(=O)(O)OP(=O)(O)OP(=O)(O)O)C(O)C2O)c1=O (centres unmarked) | exhibits antiviral activity in vivo
NC(=O)c1nccn([C@@H]2O[C@H](CO)[C@@H](O)[C@H]2O)c1=O [non-phosphorylated nucleoside form] | appears to be inactive
